Structures are written as SMILES. “And” between values parts separate entries of the source, which are not always exact repeats. Identical values can stand only once.

For experiment [1], the target named is T1, 5-LOX (Homo sapiens, UniProt P09917).
T1 sequence (P09917 1-674): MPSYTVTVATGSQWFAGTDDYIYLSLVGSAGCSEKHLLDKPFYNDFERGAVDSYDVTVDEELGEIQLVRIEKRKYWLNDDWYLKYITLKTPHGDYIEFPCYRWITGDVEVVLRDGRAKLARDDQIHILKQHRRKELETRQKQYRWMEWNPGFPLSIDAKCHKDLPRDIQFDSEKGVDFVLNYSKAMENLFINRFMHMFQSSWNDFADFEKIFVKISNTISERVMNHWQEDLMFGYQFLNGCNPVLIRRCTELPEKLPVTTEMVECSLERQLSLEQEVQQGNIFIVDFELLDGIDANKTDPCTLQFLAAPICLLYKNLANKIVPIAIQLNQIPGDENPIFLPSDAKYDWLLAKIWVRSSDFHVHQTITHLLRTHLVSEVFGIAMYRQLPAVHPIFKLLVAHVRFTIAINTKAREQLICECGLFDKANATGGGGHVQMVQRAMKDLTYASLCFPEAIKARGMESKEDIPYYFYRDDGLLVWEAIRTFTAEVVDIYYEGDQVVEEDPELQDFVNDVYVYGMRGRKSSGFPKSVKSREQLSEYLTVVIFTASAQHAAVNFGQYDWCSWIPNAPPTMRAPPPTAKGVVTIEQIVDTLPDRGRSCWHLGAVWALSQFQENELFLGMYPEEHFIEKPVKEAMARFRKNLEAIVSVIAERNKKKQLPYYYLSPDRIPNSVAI
Kind of experiment: 5-LOX fluorescent assay (in vitro lipoxygenase inhibition). The following applies: recombinant 5-LOX cell lysate, 20 μM AA, DHR123 fluorescence; several values in a cell = repeat determinations; read-out: IC50 (μM) values for in vitro lipoxygenase inhibition, 5-LOX. In kind it is biochemical. Put shortly:
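Recombinant human 5-LOX cell lysate pre-incubated 15 min with inhibitor in 50 mM Tris pH 7.5, 0.1 mM EDTA, 0.3 mM CaCl2. Reaction started with 20 μM arachidonic acid plus 100 μM ATP, with 1 μM DHR123 as fluorescent probe. IC50 from percent inhibition per dose via 4-parameter logistic or sigmoidal dose-response fit.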

The target of experiment [2] is T2, 12-LOX (Homo sapiens, UniProt P18054).
T2 sequence (P18054 1-663): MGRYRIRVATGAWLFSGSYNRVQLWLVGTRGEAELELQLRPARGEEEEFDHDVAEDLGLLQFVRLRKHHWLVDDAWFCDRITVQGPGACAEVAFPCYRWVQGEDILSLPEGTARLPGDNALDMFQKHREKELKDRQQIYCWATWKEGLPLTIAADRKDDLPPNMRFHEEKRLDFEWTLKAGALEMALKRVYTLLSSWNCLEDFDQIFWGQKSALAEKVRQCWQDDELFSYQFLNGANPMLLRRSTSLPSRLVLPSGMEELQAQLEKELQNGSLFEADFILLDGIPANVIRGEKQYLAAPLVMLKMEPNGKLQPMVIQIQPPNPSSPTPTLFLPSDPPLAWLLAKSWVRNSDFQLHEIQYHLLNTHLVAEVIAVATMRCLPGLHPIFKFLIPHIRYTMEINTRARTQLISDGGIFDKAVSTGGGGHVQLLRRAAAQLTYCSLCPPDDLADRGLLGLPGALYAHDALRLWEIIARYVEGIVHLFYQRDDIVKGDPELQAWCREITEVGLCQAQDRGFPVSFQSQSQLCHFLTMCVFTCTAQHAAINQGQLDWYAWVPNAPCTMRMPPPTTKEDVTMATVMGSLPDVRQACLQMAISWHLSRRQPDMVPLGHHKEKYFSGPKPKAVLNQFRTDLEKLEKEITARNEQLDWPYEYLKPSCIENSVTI
Kind of experiment: 12-LOX fluorescent assay (in vitro lipoxygenase inhibition). In kind it is biochemical. Conditions: 100 nM recombinant 12-LOX, 20 μM AA, DHR123 fluorescence; several values in a cell = repeat determinations; read-out: IC50 (μM) values for in vitro lipoxygenase inhibition, 12-LOX. The method in brief:
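Fluorescent assay in 50 mM Tris pH 7.5, 0.05% Tween-20, with 100 nM recombinant 12-LOX preincubated 15 min with inhibitor. Reaction was started with 20 μM arachidonic acid substrate and 1 μM DHR123. Percent inhibition per dose was fitted by 4-parameter logistic or sigmoidal dose-response for IC50.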

As usually defined, the IC50 is the point on the concentration scale where inhibition reaches its midpoint. Regarding `c1ncn(CC2(CNc3ccc(NCC4CCCCC4)cc3)COC2)n1` [SS20308-0242-01, N^1-((3-((1H-1,2,4-triazol-1-yl)methyl)oxetan-3-yl)methyl)-N^4-(cyclohexylmethyl)benzene-1,4-diamine], the IC50 was found to be 0.09 µM in experiment [1] and 0.05 µM in experiment [2].

Turning to `FC(F)(F)C(Nc1ccc(NCCn2cncn2)cn1)c1ccccc1` (stereo not shown) [SS20308-0245-01, N^5-(2-(1H-1,2,4-triazol-1-yl)ethyl)-N^2-(2,2,2-trifluoro-1-phenylethyl)pyridine-2,5-diamine], the half-inhibitory concentration (IC50) in experiment [1] is 1.19 µM; in experiment [2], 0.51 µM.

For the compound `Fc1ccc(CNc2ccc(NCCn3cncn3)cn2)cc1` [SS20308-0246-01, N^5-(2-(1H-1,2,4-triazol-1-yl)ethyl)-N^2-(4-fluorobenzyl)pyridine-2,5-diamine], the half-inhibitory concentration (IC50) in experiment [1] was found to be 0.51 µM; in experiment [2], 0.08 µM.

In the case of `FC1(F)CCC(CNc2ccc(NCCn3cncn3)cn2)CC1` [SS20308-0247-01, N^5-(2-(1H-1,2,4-triazol-1-yl)ethyl)-N^2-((4,4-difluorocyclohexyl)methyl)pyridine-2,5-diamine], the concentration for half-maximal inhibition (IC50) in experiment [1] is 0.63 µM; in experiment [2] it was 0.13 µM.

For `Fc1ccc(Nc2ccc(NCCn3cncn3)cn2)cc1` [SS20308-0248-01, N^5-(2-(1H-1,2,4-triazol-1-yl)ethyl)-N^2-(4-fluorophenyl)pyridine-2,5-diamine], the IC50 in experiment [1] came out at 0.63 µM; in experiment [2], 0.1 µM.

Consider `Fc1ccc(CNc2cccc(NCCn3cncn3)n2)cc1` [SS20308-0249-01, N^2-(2-(1H-1,2,4-triazol-1-yl)ethyl)-N^6-(4-fluorobenzyl)pyridine-2,6-diamine], for which the half-maximal inhibitory concentration (IC50) in experiment [1] is 1.59 µM; in experiment [2] it was 0.37 µM.

With `FC1(F)CCC(CNc2cccc(NCCn3cncn3)n2)CC1` [SS20308-0250-01, N^2-(2-(1H-1,2,4-triazol-1-yl)ethyl)-N^6-((4,4-difluorocyclohexyl)methyl)pyridine-2,6-diamine], the half-maximal inhibitory concentration (IC50) amounted to 1.26 µM in experiment [1] and 0.32 µM in experiment [2].

Take `CN(CCn1cncn1)c1cccc(Nc2ccc(F)cc2)c1` [SS20308-0252-01, N^1-(2-(1H-1,2,4-triazol-1-yl)ethyl)-N^3-(4-fluorophenyl)-N^1-methylbenzene-1,3-diamine]: the 50% inhibitory concentration (IC50) in experiment [1] was 1.09 µM; in experiment [2], 0.26 µM.

Take `CN(C)CCCc1c(NCc2ccc(F)cc2)cccc1-c1cccc2c1NCC2` [SS20308-0253-01, 2-(3-(dimethylamino)propyl)-N-(4-fluorobenzyl)-3-(indolin-7-yl)aniline]: the concentration for half-maximal inhibition (IC50) in experiment [1] is 0.31 µM; in experiment [2], 0.29 µM.

For `FC1(F)CCC(Nc2ccc(NCC3(Cn4cncn4)COC3)cc2)CC1` [SS20308-0263-01, N^1-((3-((1H-1,2,4-triazol-1-yl)methyl)oxetan-3-yl)methyl)-N^4-(4,4-difluorocyclohexyl) benzene-1,4-diamine], the IC50 is 0.22 µM and 0.12 µM in experiment [1]; 0.06 µM and 0.03 µM in experiment [2].

As for `Fc1c(Nc2ccccc2)ccc2c1CCN2CCn1cncn1` [SS20308-0264-01, 1-(2-(1H-1,2,4-triazol-1-yl)ethyl)-4-fluoro-N-phenylindolin-5-amine], the IC50 in experiment [1] was found to be 0.27 µM; in experiment [2], 0.05 µM.

On to `Cc1cc(Nc2ccc(F)cc2Cl)ccc1NCC1(Cn2cncn2)COC1` [SS20308-0272-01, N1-((3-((1H-1,2,4-triazol-1-yl)methyl)oxetan-3-yl)methyl)-N4-(2-chloro-4-fluorophenyl)-2-methylbenzene-1,4-diamine], for which the half-inhibitory concentration (IC50) is 0.22 µM and 0.28 µM and 0.11 µM and 0.26 µM in experiment [1]; 30 nM and 80 nM and 60 nM (2×) in experiment [2].

For `CC1(C)CC(Nc2ccc(NCCn3cncn3)cc2)c2ccccc21` (stereo not shown) [SS20308-0275-01, N^1-(2-(1H-1,2,4-triazol-1-yl)ethyl)-N^4-(3,3-dimethyl-2,3-dihydro-1H-inden-1-yl)benzene-1,4-diamine], the half-inhibitory concentration (IC50) is 0.26 µM and 0.1 µM in experiment [1]; 0.05 µM and 0.04 µM in experiment [2].

Turning to `Fc1ccc(Nc2ccc(NCC3(Cn4cncn4)COC3)c(C(F)(F)F)c2)c(Cl)c1` [SS20308-0279-01, N^1-((3-((1H-1,2,4-triazol-1-yl)methyl)oxetan-3-yl)methyl)-N^4-(2-chloro-4-fluorophenyl)-2-(trifluoromethyl)benzene-1,4-diamine], the values for the IC50 in experiment [1] and in experiment [2] were 0.64 µM and 0.28 µM, respectively.

As to `Cc1cccc(Nc2ccc(NCC3(Cn4cncn4)COC3)c(C)c2)n1` [SS20308-0289-01, N^1-((3-((1H-1,2,4-triazol-1-yl)methyl)oxetan-3-yl)methyl)-2-methyl-N^4-(6-methylpyridin-2-yl)benzene-1,4-diamine], the concentration for half-maximal inhibition (IC50) in experiment [1] was 0.25 µM and 0.61 µM; in experiment [2] it was 0.07 µM and 0.15 µM.

`Fc1ccc(Nc2ccc(NCC3(Cn4cncn4)COC3)c(C(F)(F)F)c2)cc1` [SS20308-0296-01, N^1-((3-((1H-1,2,4-triazol-1-yl)methyl)oxetan-3-yl)methyl)-N^4-(4-fluorophenyl)-2-(trifluoromethyl)benzene-1,4-diamine]: the concentration for half-maximal inhibition (IC50) is 0.08 µM in experiment [1] and 0.06 µM in experiment [2].

Regarding `CN(C)CCCNc1ccc(NC(c2ccccc2)C(F)(F)F)cc1F` (stereo not shown) [SS20308-0302-01, N^1-(3-(dimethylamino)propyl)-2-fluoro-N^4-(2,2,2-trifluoro-1-phenylethyl)benzene-1,4-diamine], the figures for the half-inhibitory concentration (IC50) in experiment [1] and in experiment [2] were 0.25 µM and 0.21 µM, respectively.

With `Cc1cc(Nc2ccc(F)c(Cl)c2)ccc1NCC1(Cn2cncn2)COC1` [SS20308-0307-01, N^1-((3-((1H-1,2,4-triazol-1-yl)methyl)oxetan-3-yl)methyl)-N^4-(3-chloro-4-fluorophenyl)-2-methylbenzene-1,4-diamine], the half-maximal inhibitory concentration (IC50) is 0.05 µM and 0.06 µM in experiment [1]; 0.02 µM and 0.06 µM in experiment [2].

On to `Cc1cc(Nc2ccc(Cl)c(F)c2)ccc1NCC1(Cn2cncn2)COC1` [SS20308-0308-01, N^1-((3-((1H-1,2,4-triazol-1-yl)methyl)oxetan-3-yl)methyl)-N^4-(4-chloro-3-fluorophenyl)-2-methylbenzene-1,4-diamine], for which the IC50 in experiment [1] was 0.04 µM and 0.03 µM and 0.05 µM and 0.09 µM; in experiment [2], 20 nM (2×) and 50 nM and 60 nM.

For `Cc1cc(Nc2ccc(F)cc2Cl)ccc1NCC1(CN2CCOCC2)COC1` [SS20308-0309-01, N^4-(2-chloro-4-fluorophenyl)-2-methyl-N^1-((3-(morpholinomethyl)oxetan-3-yl)methyl) benzene-1,4-diamine], the IC50 in experiment [1] is 0.09 µM and 0.12 µM; in experiment [2], 0.04 µM and 0.08 µM.

`Fc1cc(Nc2ccccc2Cl)ccc1NCC1(Cn2cncn2)COC1` [SS20308-0313-01, N^1-((3-((1H-1,2,4-triazol-1-yl)methyl)oxetan-3-yl)methyl)-N^4-(2-chlorophenyl)-2-fluorobenzene-1,4-diamine]: the half-maximal inhibitory concentration (IC50) came out at 0.35 µM in experiment [1] and 0.11 µM in experiment [2].

For the compound `FC(F)(F)C(Nc1ccc(NCCCN2CCOCC2)c(C2CCOCC2)c1)c1ccccc1` (stereo not shown) [SS20308-0315-01, N^1-(3-morpholinopropyl)-2-(tetrahydro-2H-pyran-4-yl)-N^4-(2,2,2-trifluoro-1-phenylethyl)benzene-1,4-diamine], the IC50 in experiment [1] was determined as 0.07 µM; in experiment [2], 0.06 µM.

On to `Fc1ccc(Nc2ccc(NCCCN3CCOCC3)c(C(F)(F)F)c2)cc1` [SS20308-0316-01, N^4-(4-fluorophenyl)-N^1-(3-morpholinopropyl)-2-(trifluoromethyl)benzene-1,4-diamine], for which the results for the IC50 in experiment [1] and in experiment [2] were 0.07 µM and 0.03 µM, respectively.
